Measured values reported in patent US12440493B2, “Combination therapy for treating cancer comprising substituted piperazines” (Eli Lilly and Company, priority 2020, dated 2025).
Where “and” joins values, the source holds several entries; their conditions need not be identical. Equal entries are not always repeated.

Tested on: IDH1(R132H) primary human AML cells
Assay: AML clearance in peripheral blood (flow cytometry, % hCD33+hCD45+ of total white cells), human AML PDx models in NSG mice
Assay type: in vivo
Conditions: for AML clearance (% hCD33 + hCD45+ (of total white cells)): QD, PO, each value one animal
Method: Compounds and Formulation. For in vivo studies, each test article is prepared at an appropriate concentration with vehicle. […] Compound A is prepared fresh at the appropriate concentrations with vehicle every 7 days and stored at 4° C. between doses. […] Cytarabine is prepared fresh weekly by dilution with sterile saline from stock solution of Cytarabine (injection 20 mg/mL, (Pfizer injectables')). Azacitidine (Sigma, Lot #MKBR7212) is formulated in sterile water and is prepared fresh daily immediately before dosing. In vivo human AML PDx models. […] Two models are used in the studies: […] As needed, splenocytes from tumor-bearing mice are used to propagate and expand the models, as described. Each test article is prepared as described above at an appropriate concentration with vehicle to give animals the doses tested in this study at a dosing volume of 10 μL/gram body weight. Mice receiving Compound A (PO, QD) are treated at the indicated doses for the duration of the study. The combination agents are dosed as follows: […] Treated mice are assessed in comparison to vehicle treated and naïve (non-tumor bearing) control mice. Body weight is recorded twice per week. […] AML PDx model propagation. […] Spleens are processed and splenocytes isolated as described below. Two hundred μL per subject of the splenocyte prep is injected IV (intravenous, tail vein) into recipient NSG mice. […] Once engraftment is confirmed, the mice are monitored biweekly until ready to be put on study. […] Submandibular blood is collected. Spleen/Splenocyte Processing and Prep. After excision, a spleen is weighed, and […] is placed in a standard sterile 15 mL polypropylene conical tube containing PBS, and placed on ice. […] The spleen is placed in ice cold sterile PBS in a 15 mL collection tube. The spleen is removed from the collection tube and placed in a 100 micron 50 mL conical tube cell strainer (BD Falcon #352360). The spleen is processed by gentle rubbing of the spleen tissue against the surface of the cell strainer with the end of a 5 mL syringe plunger in a circular motion. The surface of the strainer is rinsed with 10 mL room temperature sterile DPBS (HyClone SH30028) 3 times during the process. […] The cell pellet is collected by centrifugation (300×g) and washed three times with 30 mL sterile DPBS. The cells are counted and resuspended in DPBS at the desired implant concentration. Bone Marrow Collection. […] Flow cytometry analysis of human white cells. Submandibular blood samples from in vivo studies are collected. Fluor-conjugated antibody stains are added according to the manufacturer's instructions (anti-human CD33-PE (clone WM53, BD Cat #555450), anti-human CD14-APC (clone MφpP9, BD Cat #340436), anti-human CD15-V450 (clone HI98, BD Cat #561584), anti-human CD117-BV421 (clone YB5.B8, BD Cat #562434), anti-human […]7 (clone ICRF44, BD Cat #557754), anti-human […]7 (clone HI30, BD Cat #557748), and anti-human CD3-FITC (clone SK7, BD Cat #340542)). The samples are incubated for 30 minutes at room temperature, protected from light. After the incubation, 1.5 mL 1×BD Lyse/Fix (37° C., (BD #558049)) is added to each sample and incubated for 12 minutes at room temperature. The tubes are centrifuged at 300×g for 7 minutes. BD Lyse/Fix solution is aspirated and the cell pellet washed with stain/wash buffer 3 times (1 wash step consisted of: pellet resuspended in 3 mL stain/wash buffer, centrifuged at 300×g, aspirated wash). Fixed cells are then resuspended in 300 to 400 μL stain/wash buffer. Samples are analyzed on a Becton Dickinson FACSVerse Flow cytometer (Cat #651155 Serial #Z6511550447) using standard flow cytometry principles and techniques. Samples are analyzed on the same day as they are stained and fixed. Population gating and data analysis of percent population are performed in the FACSuite software on the FACSVerse cytometer. Percent population values from the data analysis are plotted in Graphpad Prism or in JMP13. […]

For `C=CC(=O)N1CCN([C@@H](CC2CC2)c2ccc([C@H](C)Nc3ncc4c(n3)N(CC)C(=O)OC4)cc2)CC1` [Compound A, 7-[[(1S)-1-[4-[(1S)-2-cyclopropyl-1-(4-prop-2-enoylpiperazin-1-yl)ethyl]phenyl]ethyl]amino]-1-ethyl-4H-pyrimido[4,5-d][1,3]oxazin-2-one], the “AML clearance (% hCD33 + hCD45+ (of total white cells))” value (Treatment day 50, 1 mg/kg Compound A, 1 mg/kg) was 26.13% and 48.71% and 41.07% and 42.54%, the “AML clearance (% hCD33 + hCD45+ (of total white cells))” value (Treatment day 50, 10 mg/kg Compound A, 10 mg/kg) was 2.9% and 3.66% and 5.08% and 2.11% and 1.55% and the “AML clearance (% hCD33 + hCD45+ (of total white cells))” value (Treatment day 58, 3.3 mg/kg Compound A, Table 2A, 3.3 mg/kg) was 67.45% and 59.45% and 67.73% and 53.95% and 44.7% and 48.88% and 71.52%. The “AML clearance (% hCD33 + hCD45+ (of total white cells))” value (Treatment day 61, 3.3 mg/kg Compound A, 3.3 mg/kg) was 68.85% and 72.89% and 47.42% and 56.98% and 82.54% and 38.58% and 74.64%, the “AML clearance (% hCD33 + hCD45+ (of total white cells))” value (Treatment day 64, 1 mg/kg Compound A, 1 mg/kg) was 51.67% and 57.72% and 55.61% and 45.53% and the “AML clearance (% hCD33 + hCD45+ (of total white cells))” value (Treatment day 64, 10 mg/kg Compound A, 10 mg/kg) was 0.94% and 1.66% and 1.11% and 1.55% and 0.62%. For the same compound, the “AML clearance (% hCD33 + hCD45+ (of total white cells))” value (Treatment day 75, 3.3 mg/kg Compound A, 3.3 mg/kg) was 67.91% and 54.26% and 56.55% and 90.69% and 45.05% and 68.73%, the “AML clearance (% hCD33 + hCD45+ (of total white cells))” value (Treatment day 77, 3.3 mg/kg Compound A, Table 2A, 3.3 mg/kg) was 74.81% and 79.27% and 43.75% and 60.02% and 75.38% and 59.74% and the “AML clearance (% hCD33 + hCD45+ (of total white cells))” value (Treatment day 78, 1 mg/kg Compound A, 1 mg/kg) was 65.17% and 75.95% and 68.32% and 56.56%. For the same compound, the “AML clearance (% hCD33 + hCD45+ (of total white cells))” value (Treatment day 78, 10 mg/kg Compound A, 10 mg/kg) was 0.89% and 1.72% and 0.4% and 0.45% and 0.46%, the “AML clearance (% hCD33 + hCD45+ (of total white cells))” value (Treatment day 84, 1 mg/kg Compound A, 1 mg/kg) was 98.27% and 84.52% and the “AML clearance (% hCD33 + hCD45+ (of total white cells))” value (Treatment day 89, 3.3 mg/kg Compound A, 3.3 mg/kg) was 66.75% and 67.29% and 63.26% and 92.41% and 41.16% and 62.6%. The “AML clearance (% hCD33 + hCD45+ (of total white cells))” value (Treatment day 92, 10 mg/kg Compound A, 10 mg/kg) was 0.8% and 2.36% and 0.4% and 0.19% and 0.32%, the “AML clearance (% hCD33 + hCD45+ (of total white cells))” value (Treatment day 98, 3.3 mg/kg Compound A, Table 2A, 3.3 mg/kg) was 55.63% and 73.72% and 73.42% and 85.43% and 64.03% and the “AML clearance (% hCD33 + hCD45+ (of total white cells))” value (Treatment day −3, 3.3 mg/kg Compound A, 3.3 mg/kg) was 17.5% and 23.88% and 24.18% and 19.46% and 14.94% and 20.14%. For the same compound, the “AML clearance (% hCD33 + hCD45+ (of total white cells))” value (Treatment day −8, 1 mg/kg Compound A, 1 mg/kg) was 6.97% and 3.7% and 3.2% and 7.02% and 11.07%, the “AML clearance (% hCD33 + hCD45+ (of total white cells))” value (Treatment day −8, 10 mg/kg Compound A, 10 mg/kg) was 2.43% and 7.61% and 4.1% and 6.27% and 6.53% and the “AML clearance (% hCD33 + hCD45+ (of total white cells))” value (Treatment day −19, 3.3 mg/kg Compound A, Table 2A, 3.3 mg/kg) was 6.86% and 3.77% and 4.41% and 2.93% and 5.26% and 4.84% and 2.39%. The “% peripheral blood AML cells (treatment group value)” value (shortened to “% peripheral blood AML cells”) (day 43, group B: Compound A (3.3 mg/kg), azacitidine study, vehicle 71%) was 52%, the “% peripheral blood AML cells” value (day 47, group B: Compound A (3.3 mg/kg), cytarabine study, vehicle 86%) was 39% and the “% peripheral blood AML cells” value (day 50, group B: 1 mg Compound A, vehicle 32%) was 37%. The “% peripheral blood AML cells” value (day 50, group C: 10 mg Compound A, vehicle 32%) was 2.8%, the “% peripheral blood AML cells” value (day 64, group B: 1 mg Compound A, vehicle 67%) was 51% and the “% peripheral blood AML cells” value (day 64, group C: 10 mg Compound A, vehicle 67%) was 1.1%. The “% peripheral blood AML cells” value (day 78, group B: 1 mg Compound A, vehicle 129%) was 65% and the “% peripheral blood AML cells” value (day 78, group C: 10 mg Compound A, vehicle 129%) was 0.66%.
